According to patent US20230112484A1, “COMPOSITIONS FOR CROP PROTECTION” (Agrematch Ltd., priority 2020, published 2023):

What was measured:
Assay type in all cases: in vivo
[1] = system: Amaranthus palmeri; test: Pre-emergence application (Example 5); conditions: score 0 = complete germination inhibition, 100 = no effect
Description: For pre-emergence application, compounds were dissolved in DMSO and then in distilled water to get 0.1-2 mg/ml solution with 2% DMSO. 2% DMSO solution in water was used as a negative control. As a positive control, 0.2 mg/ml oxyfluorfen ([…]) solution was used. For pre-emergence application, flowerpots were filled with 30 g of soil, and 4-5 Amaranthus palmeri seeds were sowed in each flowerpot. Each treatment contained 3 flowerpots. Each flowerpot was sprayed with 1.5 ml of the dissolved compound. Soil was let dry for about 1 hour at room conditions, and then each flowerpot was sub-irrigated with 40 ml water and incubated under conditions provided below. Amaranthus palmeri was incubated at 25° C. for 8 hr in dark, followed by 16 hr at 30° C. in light. Germination was assessed and scored after 4-7 days. Scoring scale: 0-complete germination inhibition, 100-no effect.

[2] = system: Amaranthus palmeri; test: Post-emergence application (Example 5); conditions: score 0 = complete phytotoxic effect, 100 = no effect
Description: For post-emergence application, compounds were dissolved in DMSO and then in distilled water to get 0.05-2 mg/ml solution with 2% DMSO. Break-Thru surfactant was added to a final concentration of 0.05%. Negative control—an aqueous solution of 2% DMSO and 0.05% Break-Thru. Positive control—2 mg/ml Glyphosate (Roundup). For post-emergence application, 1.5 ml of each compound solution were sprayed on the foliage of Amaranthus palmeri, which were 10 days old at the day of the experiment. Each treatment contained 3 pots. Plants were let dry for about 15 minutes at room conditions, and then incubated at controlled growth chambers. Phytotoxicity was assessed and scored 4-10 days after applications. Scoring scale: 0—complete phytotoxic effect, 100—no effect.

[3] = system: Setaria viridis; test: Herbicidal effect against Setaria viridis (Example 5); conditions: in vivo
[4] = system: Amaranthus palmeri; test: Soil germination (Example 1); conditions: for Amaranthus palmeri soil germination: score 0 = complete germination inhibition, 100 = no effect
Description: (§1) Compounds were dissolved in DMSO and then in distilled water to get 0.01-2 mg/ml solution with 1% or 2% DMSO. 1% or 2% DMSO solution in water was used as a negative control. As a positive control, 0.1 or 0.2 mg/ml oxyfluorfen (Galigan) solution was used.
(§2) Flowerpots were filled with 30 g of soil, and 4-5 seeds were sowed in each flowerpot. Each treatment contained 3 flowerpots. Each flowerpot was sprayed with 1.5 ml of the dissolved compound. Soil was let dry for about 1 hour at room conditions, and then each flowerpot was sub-irrigated with 40 ml water and incubated under conditions provided below.
(§3) Amaranthus palmeri was incubated at 25° C. for 8 hr in dark, followed by 16 hr at 30° C. in light. Lolium rigidum was incubated at 21° C. for 8 hr in dark, followed by 16 hr at 21° C. in light. Germination was assessed and scored after 4-7 days. Scoring scale: 0—complete germination inhibition, 100—no effect.

[5] = system: Lolium rigidum; test: Soil germination (Example 1); conditions: for Lolium rigidum soil germination: score 0 = complete germination inhibition, 100 = no effect
Description: as §1, §2, §3

[6] = 2 mg/ml, 4-10 days after application

CC(Cl)/C=C/C(=O)N(Cc1ccc(C#N)nc1)CC(C)C (stereo not drawn) [Compound 13]
Pre-emergence Amaranthus palmeri herbicidal activity ([1]; 0.1 mg/ml): 30 | Pre-emergence Amaranthus palmeri herbicidal activity ([1]; 0.25 mg/ml): 0 | Post-emergence Amaranthus palmeri herbicidal activity ([2]; 0.05 mg/ml): 10 | Post-emergence Amaranthus palmeri herbicidal activity ([2]; 0.075 mg/ml): 0 | Herbicidal effect against Setaria viridis, result in words [3]: moderate herbicidal effect

Cc1ccsc1CN(CC(C)C)C(=O)/C=C/C(C)Cl (stereo not drawn) [Compound 6]
Amaranthus palmeri soil germination ([4]; 0.1 mg/ml): 100 | Amaranthus palmeri soil germination ([4]; 0.25 mg/ml): 100 | Amaranthus palmeri soil germination ([4]; 0.5 mg/ml): 100 | Amaranthus palmeri soil germination ([4]; 1 mg/ml): 70 | Amaranthus palmeri soil germination ([4]; 2 mg/ml, after 4-7 days): 0 | soil germination of Amaranthus palmeri, result in words ([4]; concentration not given): active | Lolium rigidum soil germination ([5]; 2 mg/ml): 30 | soil germination of Lolium rigidum, result in words ([5]; concentration not given): active

CC(Cl)/C=C/C(=O)N(CCC(C)C)Cc1ccc(Cl)nc1 (stereo not drawn) [Compound 12]
Pre-emergence Amaranthus palmeri herbicidal activity ([1]; 0.1 mg/ml): 20 | Pre-emergence Amaranthus palmeri herbicidal activity ([1]; 0.25 mg/ml): 5 | Post-emergence Amaranthus palmeri herbicidal activity ([2]; 0.05 mg/ml): 0 | Post-emergence Amaranthus palmeri herbicidal activity ([2]; 0.075 mg/ml): 0 | Herbicidal effect against Setaria viridis, result in words [3]: moderate herbicidal effect

COc1ccc(CN(CC(C)C)C(=O)/C=C/[C@@H](C)Cl)cc1 [reference compound]
Amaranthus palmeri soil germination ([4]; 0.1 mg/ml): substantially less active | Lolium rigidum soil germination ([5]; 0.5 mg/ml): unable to reduce soil germination

CC#CCN(CC(C)C)C(=O)/C=C/C(C)Cl (stereo not drawn) [Compound 7]
Pre-emergence Amaranthus palmeri herbicidal activity ([1]; 0.1 mg/ml): 10 | Pre-emergence Amaranthus palmeri herbicidal activity ([1]; 0.25 mg/ml): 5 | Pre-emergence Amaranthus palmeri herbicidal activity ([1]; 2 mg/ml, after 4-7 days): 0 | Post-emergence Amaranthus palmeri herbicidal activity [2, 6]: 40

C#CCOCC#CCN(CC(C)C)C(=O)/C=C/C(C)Cl (stereo not drawn) [Compound 10]
Pre-emergence Amaranthus palmeri herbicidal activity ([1]; 0.1 mg/ml): 100 | Pre-emergence Amaranthus palmeri herbicidal activity ([1]; 0.25 mg/ml): 5 | Pre-emergence Amaranthus palmeri herbicidal activity ([1]; 2 mg/ml, after 4-7 days): 0 | Post-emergence Amaranthus palmeri herbicidal activity [2, 6]: 70

CC(Cl)/C=C/C(=O)N(CCC(C)C)Cc1cnc(Cl)s1 (stereo not drawn) [Compound 15]
Pre-emergence Amaranthus palmeri herbicidal activity ([1]; 0.1 mg/ml): 20 | Pre-emergence Amaranthus palmeri herbicidal activity ([1]; 0.25 mg/ml): 0 | Post-emergence Amaranthus palmeri herbicidal activity ([2]; 0.25 mg/ml): 5 | Post-emergence Amaranthus palmeri herbicidal activity ([2]; 0.5 mg/ml): 0 | Herbicidal effect against Setaria viridis, result in words [3]: moderate herbicidal effect
